Reference: patent US20010018073A1, “Transdermal compositions with enhanced skin penetration properties” (JENAPHARM GMBH & CO., KG, priority 1997, published 2001)

Key:
[1] = substance on its own versus ANP employed as accelerant; cited from earlier work
[2] = T2 relaxation times of destructuring and structuring agents in water; assay type: physicochemical; conditions: solute in water, concentration 0.5 mol/l

Structure (SMILES) | permeation through the skin relative to ANP [1] [factor] | T2 relaxation time [2] [ms]
O=[N+]([O-])O[C@H]1CO[C@H]2[C@@H]1OC[C@H]2O[N+](=O)[O-] [ISDN, isosorbide dinitrate] | 10 | 
OC[C@H]1O[C@@](CO)(O[C@H]2O[C@H](CO)[C@@H](O)[C@H](O)[C@H]2O)[C@@H](O)[C@@H]1O [Sucrose] |  | 18.7
NC(N)=O [Urea] |  | 145
